Consider 16 compounds from patent US20250214991A1 (Oncopia Therapeutics, Inc. d/b/a/ SK Life Science Labs, priority 2022, published 2025).

One assay addresses IKZF2 (Homo sapiens (Human), UniProt Q96SW2+Q9UKS7). Kind of assay: In vitro IKZF2 HiBit Assay (HEK293T Flp-in-HiBiT cells). The assay is classed as cell-based. The settings on record: HEK293T Flp-in-HiBiT cells, 6 hrs incubation; for DC50: read-out: IKZF2 HiBit DC50; for Dmax: HEK-293T, read-out: IKZF2 HiBit Dmax (%). The gist of the method:
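Remaining tagged Helios was read as lytic HiBiT/LgBiT luminescence normalized to DMSO, yielding binned DC50 and Dmax values. Treatment ran 6 h, with compounds at 11 three-fold doses diluted from 1 mM and 0.1% final DMSO. The cells were HEK293T Flp-in with CRISPR knock-in of HiBiT at the IKZF2 N-terminus.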
For orientation: HiBiT is a short tag that completes a luciferase, so light tracks the accessible tagged protein.

The target of a further assay is CRBN/DDB1 (Homo sapiens (Human), UniProt Q96SW2). Kind of assay: IC50 measurements for binding to CRBN/DDB1 (HTRF). The settings on record: His tagged CRBN+DDB, Cy5-labeled Thalidomide probe, one hour. As for the experimental part:
In vitro Assay: IC50 Measurements for binding to CRBN/DDB1 (Table E1)
The binding potency was determined using HTRF assay technology (Perkin Elmer). Compounds were serially diluted in DMSO and 0.2 μL volume was transferred to white 384-well plate. The reaction was conducted in total volume of 20 μL with addition of 2 nM His tagged CRBN+DDB−DLS7+CXU4 (Wuxi, catalogue #RP210521GA) to compounds followed by addition of 60 nM Fluorescent probe Cy5-labeled Thalidomide (Tenova Pharma, catalogue #T52461), and 0.4 nM of MAb Anti-6HIS Tb cryptate Gold (Cisbio, catalogue #61HI2TLA in the assay buffer (50 mM HEPES pH 7.5, 1 mM TCEP, 0.01% Brij-35, 50 mM NaCl, and 0.1% BSA). After one hour incubation at room temperature, the HTRF signals were read on Envision reader (Perkin Elemer). Data was analyzed using XLfit using four parameters dose response curve to determine IC50s. A: IC50<0.1 μM; B: 0.1 μM<IC50<[…]; C: 0.5 μM<IC50<1 μM; D: 1 μM<IC50<5 μM; E: 5 μM<IC50<10 μM

The target in the next assay is IKZF1 (Homo sapiens (Human), UniProt Q13422+Q96SW2). Kind of assay: In vitro IKZF1 HiBit Assay (HEK293T Flp-in-HiBiT-IKZF1 stable cell line). Conditions: HEK293T Flp-in-HiBiT-IKZF1 stable cell line, 6 hrs incubation; for DC50: read-out: IKZF1 HiBit DC50; for Dmax: HEK-293T, read-out: IKZF1 HiBit Dmax (%). The assay is classed as cell-based. The gist of the method:
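Degradation was measured as loss of luminescence from the HiBiT-IKZF1 tag after 6 h compound treatment, with 0.1% final DMSO, in stable HEK293T Flp-in cells. Values were normalized to DMSO, giving the 50% degradation concentration and the maximal degradation range.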

The structures appear in SMILES notation. pIC50: −log10 of the molar value.

IKZF2, sequence (Q9UKS7 whole entry): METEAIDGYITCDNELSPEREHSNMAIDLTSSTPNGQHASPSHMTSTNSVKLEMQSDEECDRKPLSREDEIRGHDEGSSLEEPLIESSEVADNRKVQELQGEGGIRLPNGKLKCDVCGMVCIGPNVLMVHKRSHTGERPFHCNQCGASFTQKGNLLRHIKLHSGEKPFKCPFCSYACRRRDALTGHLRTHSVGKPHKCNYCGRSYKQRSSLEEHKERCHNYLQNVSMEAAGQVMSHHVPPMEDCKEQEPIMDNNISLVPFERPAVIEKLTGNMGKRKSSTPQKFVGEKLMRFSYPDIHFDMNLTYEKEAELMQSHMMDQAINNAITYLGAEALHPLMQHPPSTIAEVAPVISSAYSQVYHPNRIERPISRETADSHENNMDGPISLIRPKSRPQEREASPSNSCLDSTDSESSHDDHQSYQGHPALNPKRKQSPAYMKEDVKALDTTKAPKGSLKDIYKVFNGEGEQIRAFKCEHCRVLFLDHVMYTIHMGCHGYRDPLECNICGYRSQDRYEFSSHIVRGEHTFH
IKZF2, sequence (Q96SW2 whole entry): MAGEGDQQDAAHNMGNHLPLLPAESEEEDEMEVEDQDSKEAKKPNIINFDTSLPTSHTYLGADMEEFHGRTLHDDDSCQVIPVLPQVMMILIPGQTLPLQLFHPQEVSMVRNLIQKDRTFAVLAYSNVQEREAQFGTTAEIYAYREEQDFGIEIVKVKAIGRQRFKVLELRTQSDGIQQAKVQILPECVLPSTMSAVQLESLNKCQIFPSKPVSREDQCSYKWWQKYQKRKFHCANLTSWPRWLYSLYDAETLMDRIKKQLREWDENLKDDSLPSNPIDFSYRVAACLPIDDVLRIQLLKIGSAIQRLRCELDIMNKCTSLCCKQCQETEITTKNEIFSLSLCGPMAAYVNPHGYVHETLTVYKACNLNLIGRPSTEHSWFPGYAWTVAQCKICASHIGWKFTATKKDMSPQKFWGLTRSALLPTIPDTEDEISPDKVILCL
IKZF2, sequence (Q16531 2-1140 partner): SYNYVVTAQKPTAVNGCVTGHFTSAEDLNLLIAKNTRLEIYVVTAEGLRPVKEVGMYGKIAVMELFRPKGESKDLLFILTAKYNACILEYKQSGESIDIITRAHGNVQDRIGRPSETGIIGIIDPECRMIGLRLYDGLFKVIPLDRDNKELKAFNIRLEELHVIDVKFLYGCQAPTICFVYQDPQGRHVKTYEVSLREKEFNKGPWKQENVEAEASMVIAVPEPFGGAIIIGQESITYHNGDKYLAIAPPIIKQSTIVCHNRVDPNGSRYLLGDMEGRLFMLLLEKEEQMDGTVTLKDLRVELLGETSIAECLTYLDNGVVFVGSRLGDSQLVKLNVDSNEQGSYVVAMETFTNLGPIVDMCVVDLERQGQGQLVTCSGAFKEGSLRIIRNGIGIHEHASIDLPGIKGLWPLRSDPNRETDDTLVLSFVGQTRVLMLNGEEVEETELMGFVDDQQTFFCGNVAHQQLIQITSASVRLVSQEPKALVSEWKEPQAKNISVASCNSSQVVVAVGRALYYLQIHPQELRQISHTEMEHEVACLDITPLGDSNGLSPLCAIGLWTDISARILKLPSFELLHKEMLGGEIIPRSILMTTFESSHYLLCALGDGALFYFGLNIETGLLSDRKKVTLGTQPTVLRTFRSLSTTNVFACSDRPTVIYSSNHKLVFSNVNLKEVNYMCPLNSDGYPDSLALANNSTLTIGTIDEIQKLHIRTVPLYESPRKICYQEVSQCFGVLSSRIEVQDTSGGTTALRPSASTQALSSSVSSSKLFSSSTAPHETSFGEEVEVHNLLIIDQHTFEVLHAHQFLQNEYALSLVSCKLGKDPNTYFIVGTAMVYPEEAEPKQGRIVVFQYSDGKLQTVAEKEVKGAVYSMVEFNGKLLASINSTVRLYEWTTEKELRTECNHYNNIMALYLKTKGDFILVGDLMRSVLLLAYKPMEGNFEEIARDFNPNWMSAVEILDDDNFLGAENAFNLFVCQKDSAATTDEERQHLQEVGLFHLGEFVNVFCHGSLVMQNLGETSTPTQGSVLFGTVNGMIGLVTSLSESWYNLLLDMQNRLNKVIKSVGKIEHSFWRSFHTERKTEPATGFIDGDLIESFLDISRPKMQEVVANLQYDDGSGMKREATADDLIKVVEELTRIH
IKZF1, sequence (Q13422 whole entry): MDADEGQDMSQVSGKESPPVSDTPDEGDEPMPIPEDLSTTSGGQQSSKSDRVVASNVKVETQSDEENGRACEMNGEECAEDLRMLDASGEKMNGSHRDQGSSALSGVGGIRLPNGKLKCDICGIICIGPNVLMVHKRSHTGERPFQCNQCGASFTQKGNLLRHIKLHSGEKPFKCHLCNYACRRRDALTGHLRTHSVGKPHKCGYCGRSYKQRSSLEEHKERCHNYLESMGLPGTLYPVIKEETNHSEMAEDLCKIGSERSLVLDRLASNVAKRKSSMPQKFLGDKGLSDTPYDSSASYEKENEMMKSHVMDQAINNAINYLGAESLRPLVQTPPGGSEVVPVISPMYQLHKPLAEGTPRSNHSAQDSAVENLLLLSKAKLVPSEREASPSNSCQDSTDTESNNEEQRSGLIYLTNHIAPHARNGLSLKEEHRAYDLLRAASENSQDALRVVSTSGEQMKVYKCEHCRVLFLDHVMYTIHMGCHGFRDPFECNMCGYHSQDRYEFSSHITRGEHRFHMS
IKZF1, sequence (Q96SW2 whole entry): as the sequence (Q96SW2 whole entry) above
IKZF1, sequence (Q16531 2-1140 partner): as the sequence (Q16531 2-1140 partner) above
CRBN/DDB1, sequence (Q96SW2 whole entry, species assumed): as the sequence (Q96SW2 whole entry) above
CRBN/DDB1, sequence (Q16531 whole entry partner, species assumed): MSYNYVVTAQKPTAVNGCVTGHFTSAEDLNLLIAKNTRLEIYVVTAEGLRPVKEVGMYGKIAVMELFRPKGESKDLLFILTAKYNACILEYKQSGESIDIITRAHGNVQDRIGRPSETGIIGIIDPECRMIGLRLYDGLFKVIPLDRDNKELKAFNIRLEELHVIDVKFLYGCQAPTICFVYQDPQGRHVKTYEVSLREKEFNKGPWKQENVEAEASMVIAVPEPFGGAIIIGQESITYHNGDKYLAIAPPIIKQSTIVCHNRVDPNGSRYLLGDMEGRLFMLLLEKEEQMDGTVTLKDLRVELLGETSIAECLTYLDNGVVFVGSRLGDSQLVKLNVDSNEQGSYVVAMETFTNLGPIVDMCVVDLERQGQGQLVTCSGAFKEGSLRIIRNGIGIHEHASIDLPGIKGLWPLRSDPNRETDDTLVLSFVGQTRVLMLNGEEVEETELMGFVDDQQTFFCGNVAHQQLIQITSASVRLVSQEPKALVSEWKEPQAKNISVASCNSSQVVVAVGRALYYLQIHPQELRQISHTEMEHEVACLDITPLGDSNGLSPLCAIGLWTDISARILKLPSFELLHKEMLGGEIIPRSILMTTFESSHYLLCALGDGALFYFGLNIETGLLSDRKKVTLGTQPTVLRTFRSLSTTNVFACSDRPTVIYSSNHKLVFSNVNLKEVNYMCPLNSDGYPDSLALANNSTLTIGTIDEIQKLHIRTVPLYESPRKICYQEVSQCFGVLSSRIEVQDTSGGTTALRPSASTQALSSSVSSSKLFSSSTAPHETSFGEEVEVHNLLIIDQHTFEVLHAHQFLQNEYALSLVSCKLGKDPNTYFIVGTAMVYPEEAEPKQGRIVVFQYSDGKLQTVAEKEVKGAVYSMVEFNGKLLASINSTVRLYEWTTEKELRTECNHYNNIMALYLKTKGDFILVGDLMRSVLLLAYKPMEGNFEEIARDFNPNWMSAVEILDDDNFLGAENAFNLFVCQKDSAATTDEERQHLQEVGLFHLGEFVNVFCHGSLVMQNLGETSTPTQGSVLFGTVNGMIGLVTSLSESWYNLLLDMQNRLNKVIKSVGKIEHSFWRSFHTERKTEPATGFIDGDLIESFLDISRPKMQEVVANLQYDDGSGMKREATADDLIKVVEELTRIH

What is called pIC50 is −log10 of the IC50, conventionally taken in molar units. For `COC1CN(Cc2cc(-c3ccc4c(c3)CN(C3CCC(=O)NC3=O)C4=O)nc3c2ccn3C)C1` (centres unmarked) [Example 85, 3-(5-(4-((3-methoxyazetidin-1-yl)methyl)-1-methyl-1H-pyrrolo[2,3-b]pyridin-6-yl)-1-oxoisoindolin-2-yl) piperidine-2,6-dione], the DC50 on IKZF2 and at IKZF1 was 1 to 10 nM in each case. The Dmax on IKZF2 was over 80%; on IKZF1, 20 to 40%. This compound also gave a pIC50 on CRBN/DDB1 of 6.30 to 7.00.

In the case of `CC(c1cc(-c2ccc3c(c2)CN(C2CCC(=O)NC2=O)C3=O)nc2c1ccn2C)N1CCCC1` (centres unmarked) [Example 87, 3-(5-(1-methyl-4-(1-(pyrrolidin-1-yl)ethyl)-1H-pyrrolo[2,3-b]pyridin-6-yl)-1-oxoisoindolin-2-yl) piperidine-2,6-dione], on IKZF2, the DC50 was in the range of 100 to 1000 nM and the Dmax was under 20%. At CRBN/DDB1, this compound gave a pIC50 of 6.30 to 7.00. On IKZF1, the DC50 was over 10000 nM and the Dmax is under 20%.

For `Cn1ccc2c(Cn3ccnc3)cc(-c3ccc4c(c3)CN(C3CCC(=O)NC3=O)C4=O)nc21` (centres unmarked) [Example 88, 3-(5-(4-((1H-imidazol-1-yl)methyl)-1-methyl-1H-pyrrolo[2,3-b]pyridin-6-yl)-1-oxoisoindolin-2-yl) piperidine-2,6-dione], on IKZF2, the DC50 lay within 10 to 100 nM and the Dmax was over 80%. The compound further had a pIC50 at CRBN/DDB1 of 5.30 to 6.00. In addition, at IKZF1, the DC50 was over 10000 nM and the Dmax is under 20%.

For `Cn1ccc2c(C(=O)N3CCCC3)cc(-c3ccc4c(c3)CN(C3CCC(=O)NC3=O)C4=O)nc21` (centres unmarked) [Example 89, 3-(5-(1-methyl-4-(pyrrolidine-1-carbonyl)-1H-pyrrolo[2,3-b]pyridin-6-yl)-1-oxoisoindolin-2-yl) piperidine-2,6-dione], at IKZF2, the DC50 is 100 to 1000 nM and the Dmax is 20 to 40%. Also, the negative-log IC50 (pIC50) on CRBN/DDB1 is 6.00 to 6.30. Further, at IKZF1, the DC50 was over 10000 nM and the Dmax is under 20%.

On to `Cn1ccc2c(CN3CCC(C(F)(F)F)CC3)cc(-c3ccc4c(c3)CN(C3CCC(=O)NC3=O)C4=O)nc21` (centres unmarked) [Example 90, 3-(5-(1-methyl-4-((4-(trifluoromethyl)piperidin-1-yl)methyl)-1H-pyrrolo[2,3-b]pyridin-6-yl)-1-oxoisoindolin-2-yl) piperidine-2,6-dione], for which, on IKZF2, the DC50 was 1 to 10 nM and the Dmax was over 80%. In addition, the negative logarithm of the IC50 (pIC50) at CRBN/DDB1 was 6.30 to 7.00. Besides, at IKZF1, the DC50 lay within 10 to 100 nM and the Dmax lay within 20 to 40%.

`Cn1ccc2c(CN3CC4(COC4)C3)cc(-c3ccc4c(c3)CN(C3CCC(=O)NC3=O)C4=O)nc21` (centres unmarked) [Example 91, 3-(5-(4-((2-oxa-6-azaspiro[3.3]heptan-6-yl)methyl)-1-methyl-1H-pyrrolo[2,3-b]pyridin-6-yl)-1-oxoisoindolin-2-yl) piperidine-2,6-dione]: on IKZF2, the DC50 lay within 1 to 10 nM and the Dmax is over 80%. This compound also gave a pIC50 on CRBN/DDB1 of 6.00 to 6.30. On IKZF1, the DC50 lay in the range of 10 to 100 nM and the Dmax fell in the range of 20 to 40%.

As for `CN(C)C(=O)C1CCN(Cc2cc(-c3ccc4c(c3)CN(C3CCC(=O)NC3=O)C4=O)nc3c2ccn3C)CC1` (centres unmarked) [Example 92, 1-((6-(2-(2,6-dioxopiperidin-3-yl)-1-oxoisoindolin-5-yl)-1-methyl-1H-pyrrolo[2,3-b]pyridin-4-yl)methyl)-N,N-dimethylpiperidine-4-carboxamide], at IKZF2, the DC50 fell in the range of 1 to 10 nM and the Dmax is over 80%. The negative logarithm of the IC50 (pIC50) on CRBN/DDB1 is over 7.00. Further, at IKZF1, the DC50 is over 10000 nM and the Dmax is under 20%.

`COC1CCN(Cc2cc(-c3ccc4c(c3)CN(C3CCC(=O)NC3=O)C4=O)nc3c2ccn3C)C1` (centres unmarked) [Example 93, 3-(5-(4-((3-methoxypyrrolidin-1-yl)methyl)-1-methyl-1H-pyrrolo[2,3-b]pyridin-6-yl)-1-oxoisoindolin-2-yl) piperidine-2,6-dione]: the DC50 was under 1 nM on IKZF2 and 10 to 100 nM on IKZF1. Also, the results for the Dmax on IKZF2 and on IKZF1 were over 80% and 20 to 40%, respectively. Also, the pIC50 on CRBN/DDB1 is 6.30 to 7.00.

As for `Cn1ccc2c(CN3CCC(n4cccn4)CC3)cc(-c3ccc4c(c3)CN(C3CCC(=O)NC3=O)C4=O)nc21` (centres unmarked) [Example 94, 3-(5-(4-((4-(1H-pyrazol-1-yl)piperidin-1-yl)methyl)-1-methyl-1H-pyrrolo[2,3-b]pyridin-6-yl)-1-oxoisoindolin-2-yl) piperidine-2,6-dione], on IKZF2, the DC50 lay within 1 to 10 nM and the Dmax lay in the range of 60 to 80%. Further, the pIC50 at CRBN/DDB1 is over 7.00. In addition, at IKZF1, the DC50 is over 10000 nM and the Dmax was under 20%.

On to `Cn1ccc2c(CN3CCN4CCCC4C3)cc(-c3ccc4c(c3)CN(C3CCC(=O)NC3=O)C4=O)nc21` (centres unmarked) [Example 95, 3-(5-(4-((hexahydropyrrolo[1,2-a]pyrazin-2 (1H)-yl)methyl)-1-methyl-1H-pyrrolo[2,3-b]pyridin-6-yl)-1-oxoisoindolin-2-yl) piperidine-2,6-dione], for which, at IKZF2, the DC50 fell in the range of 1 to 10 nM and the Dmax was in the range of 60 to 80%. Besides, at CRBN/DDB1, the pIC50 is 6.30 to 7.00. In addition, at IKZF1, the DC50 was over 10000 nM and the Dmax is under 20%.

Take `Cn1ccc2c(CN3CCC(CO)C3)cc(-c3ccc4c(c3)CN(C3CCC(=O)NC3=O)C4=O)nc21` (centres unmarked) [Example 96, 3-(5-(4-((3-(hydroxymethyl)pyrrolidin-1-yl)methyl)-1-methyl-1H-pyrrolo[2,3-b]pyridin-6-yl)-1-oxoisoindolin-2-yl) piperidine-2,6-dione]: at IKZF2, the DC50 was in the range of 1 to 10 nM and the Dmax is over 80%. For the same compound, the pIC50 on CRBN/DDB1 is 6.30 to 7.00. Further, on IKZF1, the DC50 is 10 to 100 nM and the Dmax fell in the range of 20 to 40%.

For the compound `Cn1ccc2c(Cn3cnc4ccccc43)cc(-c3ccc4c(c3)CN(C3CCC(=O)NC3=O)C4=O)nc21` (centres unmarked) [Example 97, 3-(5-(4-((1H-benzo[d]imidazol-1-yl)methyl)-1-methyl-1H-pyrrolo[2,3-b]pyridin-6-yl)-1-oxoisoindolin-2-yl) piperidine-2,6-dione], the results for the DC50 at IKZF2 and at IKZF1 were 10 to 100 nM and over 10000 nM, respectively. In addition, the Dmax at IKZF2 was 40 to 60%; at IKZF1 it was under 20%. Besides, the pIC50 at CRBN/DDB1 is over 7.00.

In the case of `CCn1ccc2c(CN3CCC3)cc(-c3ccc4c(c3)CN(C3CCC(=O)NC3=O)C4=O)nc21` (centres unmarked) [Example 98, 3-(5-(4-(azetidin-1-ylmethyl)-1-ethyl-1H-pyrrolo[2,3-b]pyridin-6-yl)-1-oxoisoindolin-2-yl) piperidine-2,6-dione], on IKZF2, the DC50 was in the range of 1 to 10 nM and the Dmax is over 80%. This compound also showed a negative-log IC50 (pIC50) on CRBN/DDB1 of over 7.00. Also, at IKZF1, the DC50 is over 10000 nM and the Dmax was under 20%.

Turning to `Cn1ccnc1N1CCN(Cc2cc(-c3ccc4c(c3)CN(C3CCC(=O)NC3=O)C4=O)nc3c2ccn3C)CC1` (centres unmarked) [Example 99, 3-(5-(1-methyl-4-((4-(1-methyl-1H-imidazol-2-yl)piperazin-1-yl)methyl)-1H-pyrrolo[2,3-b]pyridin-6-yl)-1-oxoisoindolin-2-yl) piperidine-2,6-dione], at IKZF2, the DC50 was 10 to 100 nM and the Dmax was 40 to 60%. The same compound showed a pIC50 on CRBN/DDB1 of 6.30 to 7.00. On IKZF1, the DC50 was over 10000 nM and the Dmax is under 20%.

Take `Cn1ccc2c(CN3CC4(CCOCC4)C3)cc(-c3ccc4c(c3)CN(C3CCC(=O)NC3=O)C4=O)nc21` (centres unmarked) [Example 100, 3-(5-(4-((7-oxa-2-azaspiro[3.5]nonan-2-yl)methyl)-1-methyl-1H-pyrrolo[2,3-b]pyridin-6-yl)-1-oxoisoindolin-2-yl) piperidine-2,6-dione]: at IKZF2, the DC50 was under 1 nM and the Dmax was over 80%. Also, at CRBN/DDB1, the negative-log IC50 (pIC50) was 6.30 to 7.00. Moreover, on IKZF1, the DC50 lay within 10 to 100 nM and the Dmax was in the range of 20 to 40%.

On to `Cn1ccc2c(CN3CCCC3CO)cc(-c3ccc4c(c3)CN(C3CCC(=O)NC3=O)C4=O)nc21` (centres unmarked) [Example 101, 3-(5-(4-((2-(hydroxymethyl)pyrrolidin-1-yl)methyl)-1-methyl-1H-pyrrolo[2,3-b]pyridin-6-yl)-1-oxoisoindolin-2-yl) piperidine-2,6-dione], for which, on IKZF2, the DC50 was 1 to 10 nM and the Dmax was over 80%. Moreover, at CRBN/DDB1, the pIC50 was 6.30 to 7.00. On IKZF1, the DC50 is over 10000 nM and the Dmax was under 20%.
